# US9504700B2, “Methods and compositions for stimulation and enhancement of regeneration of tissues” (MOUNT DESERT ISLAND BIOLOGICAL LABORATORY, priority 2012, dated 2016)
# Columns and labels:
# [1] = system: caudal fin of adult zebrafish; experiment: Caudal fin regeneration after amputation in adult zebrafish; format: in vivo
# Description: The purpose of this example was to evaluate the pharmacological effect of aminosterol MSI-1436 administration on the regeneration of the caudal or tail fins of zebrafish. Wildtype adult zebrafish were treated with MSI-1436 or squalamine or a control of phosphate buffered saline solution (PBS) over a four-day period via daily intraperitoneal microinjections. The adult zebrafish were bred and housed in the Yin laboratory at Mount Desert Island Biological Laboratory. The microinjections of PBS, squalamine and MSI-1436 were performed for the duration of the experiments at concentrations of 0.125 mg/kg which corresponds to 50 ng/300 mg body weight which translates to 5-200 mg per dose in humans. On average, a 5 ul volume of 10 ug/ml solution was delivered into each animal with a custom made 10 ul glass syringe (Hamilton part #80008).
# The tail or caudal fins were amputated following the second day of intraperitoneal microinjections. These amputations were accomplished using a razor blade to remove approximately 50% of the caudal fins each in a manner perpendicular to the direction of bony ray growth. The zebrafish were maintained at standard conditions of 28° C. at all times during the experiments. At 4 days post-amputation (4 dpa) through 14 dpa, caudal fins were imaged with an Olympus MVX10 stereomicroscope and the length of regenerated tissue from the amputation plane was quantified using Adobe Photoshop.
# (The dashed lines correspond to the amputation planes; the scale bar is 1 mm; * corresponds to the Student's ttest p-value <0.01; error bars correspond to SEM; n corresponds to 8-10 fish per group.) MSI-1436 stimulated appendage regeneration 2-fold four days after amputation (4 dpa), as shown in FIG. 2. […] In other words, the rate of regeneration was […] for those animals receiving MSI-1436 than for those receiving either phosphate buffered saline (PBS) or squalamine. Each of the experiments was conducted with at least 6 animals per group. […] FIG. 1 reflects the results of all four experiments.
# Wildtype adult zebrafish were subjected to caudal fin amputation and treated daily with either control PBS or MSI-1436 as described above in the context of FIG. 1 for 14 consecutive days during regeneration. (Arrowhead=amputation plane; n=4-6 per group).
# [2] = system: caudal fin blastema cells; experiment: Proliferation of caudal fin blastema cells (H3P staining); format: in vivo, zebrafish; conditions: 4 dpa, vs control
# Excerpt: The zebrafish caudal fins from the control and MSI-1436 treated animals were extracted at four days post-amputation (4 dpa) and stained with an antibody directed against phosphorylated histone 3 (H3P) as a marker of cell proliferation. […] (Arrowheads highlight subset of H3P positive cells; * corresponds to Student's ttest p-value <0.001; error bars correspond to SEM; n corresponds to 6 fish per group).
# zebrafish adult hearts [3] = experiment: Heart regeneration after partial ventricular resection (cardiomyocyte proliferation index, Mef2+PCNA+); format: in vivo; conditions: 3 dpa; 0.125 mg/kg daily ip
# Description: The pharmacological effect of aminosterol MSI-1436 administration on the regeneration of zebrafish adult hearts was tested using the same experimental paradigm described under the first study of example 1.
# Adult zebrafish of 6-8 months old, were subjected to partial ventricular resection procedures followed by daily treatments with intraperitoneal microinjections of PBS (control) or squalamine or MSI-1436 at concentrations of 0.125 mg/kg. The ventricular resection procedures removed ˜20% of the ventricular apex of each heart and challenged each animal to regenerate new heart tissue. At three days post-amputation (3 dpa), hearts were extracted, fixed, cyrosectioned and stained with antibodies directed against Mef2 and PCNA. Cardiomyocyte proliferation indices were determined for each group by representing Mef2+PCNA+cells as a percent of total Mef2+cells within each heart. (*=Student's ttest p-value <0.05; error bars=SEM; n=4 per group).
# zebrafish adult hearts [4] = experiment: Rescue of let-7 miRNA depletion defect in heart regeneration (cardiomyocyte proliferation index); format: in vivo; conditions: 3 dpa
# Excerpt: To determine if MSI-1436 is capable of rescuing defects in heart regeneration, we microinjected antisense oligonucleotides to bind and remove activity of the let-7 family of small RNAs (miRNAs). Wildtype adult zebrafish were injured via the partial ventricular resection procedure described above and treated with either 1) control of PBS, 2) MSI-1436, 3) miRNA depletion, and 4) miRNA depletion and MSI-1436. At three days post-amputation (3 dpa), hearts were extracted and stained to detect Mef2+PCNA+cells. Cardiomyocyte proliferation indices were determined as a percent of Mef2+PCNA+cells within the total cardiomyocyte population in each heart. (*=Student's ttest p-value <0.05; error bars=SEM; n=8-12 hearts per group) The inclusion of MSI-1436 enhanced cardiomyocyte proliferation indices by 2-fold when compared to control hearts. Depletion of the let-7 family of miRNAs with antisense nucleotides inhibited cardiomyocyte proliferation index by approximately 45%.
# [5] = system: Normal, green monkey kidney cells; experiment: Cellular proliferation of normal green monkey kidney cells; format: cell-based; conditions: 0.1 μg/ml or 1.0 μg/ml, two weeks
# Description: This study was conducted to determine the effects of MSI-1436 on the cellular proliferation of normal, uninjured mammalian cells.
# Normal, green monkey kidney cells were cultured with either control media of PBS or supplemented with 0.1 μg/ml or 1.0 μg/ml of MSI-1436. Growth media with and without MSI-1436 were replaced daily and total cell numbers were determined for each group over a period of 2-weeks.
# PTP1B = target: T1, PTP1B (Homo sapiens, UniProt P18031); conditions: in vitro enzyme assay; cited from earlier work
# T1 sequence (P18031 1-435): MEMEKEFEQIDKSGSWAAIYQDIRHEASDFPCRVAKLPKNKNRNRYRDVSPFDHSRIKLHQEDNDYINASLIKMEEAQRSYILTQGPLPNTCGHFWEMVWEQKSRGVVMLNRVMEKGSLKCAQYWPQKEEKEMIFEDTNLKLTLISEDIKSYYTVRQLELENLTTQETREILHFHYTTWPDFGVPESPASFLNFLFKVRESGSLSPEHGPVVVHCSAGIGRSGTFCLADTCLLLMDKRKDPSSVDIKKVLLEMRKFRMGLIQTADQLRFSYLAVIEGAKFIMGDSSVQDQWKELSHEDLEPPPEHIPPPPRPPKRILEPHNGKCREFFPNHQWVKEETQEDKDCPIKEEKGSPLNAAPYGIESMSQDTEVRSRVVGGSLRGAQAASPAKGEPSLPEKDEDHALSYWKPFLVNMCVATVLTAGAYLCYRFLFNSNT
# hepatoma cells = conditions: cited from earlier work
# insulin receptor = conditions: mouse, with administration of insulin; cited from earlier work
# HIV = conditions: tissue culture; cited from earlier work
smiles,measurement,setting,value
CC(C)[C@@H](CC[C@@H](C)[C@H]1CC[C@H]2[C@@H]3[C@H](O)C[C@H]4C[C@@H](NCCCNCCCCNCCCN)CC[C@]4(C)[C@H]3CC[C@]12C)OS(=O)(=O)O [MSI-1436],anatomy of restored tail,[1]; 0.125 mg/kg daily ip,anatomically normal
same,rate of regeneration greater than PBS or squalamine,[1]; 0.125 mg/kg daily ip,200%
same,overgrowth of regenerated tissue,[1]; 14 consecutive days of daily microinjections,did not display any overgrowth
same,amount of regenerated tissue vs control,[1]; 14 days post-amputation (14 dpa),same amount of regenerated tissue
same,stimulation of appendage regeneration,"[1]; four days after amputation (4 dpa), 0.125 mg/kg daily ip",2 fold
same,increase in cellular proliferation of blastema cells (H3P positive),[2],2 fold
same,"greater rate of heart regeneration, as quantified by cardiomyocyte proliferation indices, vs PBS or squalamine",zebrafish adult hearts [3],2-3 fold
same,enhancement of cardiomyocyte proliferation indices vs control hearts,zebrafish adult hearts [4],2 fold
same,cardiomyocyte proliferation index in animals with miRNA depletion,zebrafish adult hearts [4]; miRNA depletion and MSI-1436,restored to wildtype control levels
same,cellular proliferation plots,[5]; media replaced daily,normal growth curves
same,overgrowth or hyperproliferation,[5],did not promote overgrowth or hyperproliferation
same,PTP1B activity,PTP1B,inhibit the activity of PTP1B
same,phosphorylation of the insulin receptor,hepatoma cells,increase the level of phosphorylation of the insulin receptor
same,recovery of phosphorylated insulin receptor from the hypothalamus,insulin receptor,increase in the recovery of phosphorylated insulin receptor from the hypothalamus
same,antiviral activity against HIV,HIV,exhibits antiviral activity against HIV
